The values that follow come from patent US8802675B2, “Neuroprotective multifunctional compounds and pharmaceutical compositions comprising them” (priority 2009, dated 2014).

The target of one experiment is T1, rat brain MAO-A (Rattus norvegicus, UniProt P21396).
T1 construct: from tissue; host or cells: rat brain homogenate
T1 sequence (P21396 1-526): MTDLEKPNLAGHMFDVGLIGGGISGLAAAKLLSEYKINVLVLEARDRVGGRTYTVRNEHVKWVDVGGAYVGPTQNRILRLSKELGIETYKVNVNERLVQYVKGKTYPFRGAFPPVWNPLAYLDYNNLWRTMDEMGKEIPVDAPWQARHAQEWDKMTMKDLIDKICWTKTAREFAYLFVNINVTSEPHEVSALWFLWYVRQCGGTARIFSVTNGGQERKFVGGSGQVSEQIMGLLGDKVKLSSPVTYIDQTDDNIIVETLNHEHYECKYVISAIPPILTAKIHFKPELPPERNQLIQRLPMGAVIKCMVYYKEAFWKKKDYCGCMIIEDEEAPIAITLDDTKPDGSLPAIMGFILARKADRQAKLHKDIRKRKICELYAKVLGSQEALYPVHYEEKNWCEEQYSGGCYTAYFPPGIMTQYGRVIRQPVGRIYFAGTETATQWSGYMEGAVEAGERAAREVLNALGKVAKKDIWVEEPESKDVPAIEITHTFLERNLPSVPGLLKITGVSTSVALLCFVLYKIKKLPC
Nature of the experiment: biochemical. The conditions noted are these: IC50 MAO-A, rat brain homogenate in vitro; mean SEM, n=3 in triplicates. The protocol:
(§1) Rats were decapitated and the brains were quickly taken into a pre-weighted ice-cold sucrose buffer (10 mM Tris-HCl buffer, pH 7.4, containing 0.32 M sucrose), and their weights were measured. The brains were homogenized at 0-4° C. in 0.32 M sucrose (one part tissue to 20 parts sucrose) in a Teflon glass homogenizer. The resultant homogenates were used to determine MAO activity. Protein concentration was determined with Bradford reagent at 595 nm, using bovine serum albumin as a standard.
(§2) The activity of MAO-A and MAO-B were determined by the adapted method of Tipton & Youdim (Tipton et al. 1983). Briefly, the multifunctional compound tested was added to a suitable dilution of the enzyme preparation (70 μg MAO-B and 150 μg MAO-A) in 0.05 M phosphate buffer (pH 7.4). The mixture was incubated together with 0.05 μM 1-deprenyl, a specific inhibitor of MAO-B (for determination of MAO-A activity in the presence of the test compound) or 0.05 μM clorgyline a specific inhibitor of MAO-A (for determination of MAO-B activity). […] The reaction was stopped with 2M ice-cold citric acid, and the radioactive metabolites (5-hydroxytryptaldehyde and phenylacetaldehyde) were extracted by addition of 2 ml of ethylacetate/toluene (1:1 vol/vol). The radioactivity contained in the organic phase was determined by liquid-scintillation counting in cpm units.
(§3) MAO-A and MAO-B activities were determined in rat brain homogenate in vitro following incubation with varying concentrations of the test compounds.
(§4) The results are the mean SEM, n=3 in triplicates.

The target of another experiment is T2, rat brain MAO-B (Rattus norvegicus, UniProt P19643).
T2 construct: from tissue; host or cells: rat brain homogenate
T2 sequence (P19643 1-520): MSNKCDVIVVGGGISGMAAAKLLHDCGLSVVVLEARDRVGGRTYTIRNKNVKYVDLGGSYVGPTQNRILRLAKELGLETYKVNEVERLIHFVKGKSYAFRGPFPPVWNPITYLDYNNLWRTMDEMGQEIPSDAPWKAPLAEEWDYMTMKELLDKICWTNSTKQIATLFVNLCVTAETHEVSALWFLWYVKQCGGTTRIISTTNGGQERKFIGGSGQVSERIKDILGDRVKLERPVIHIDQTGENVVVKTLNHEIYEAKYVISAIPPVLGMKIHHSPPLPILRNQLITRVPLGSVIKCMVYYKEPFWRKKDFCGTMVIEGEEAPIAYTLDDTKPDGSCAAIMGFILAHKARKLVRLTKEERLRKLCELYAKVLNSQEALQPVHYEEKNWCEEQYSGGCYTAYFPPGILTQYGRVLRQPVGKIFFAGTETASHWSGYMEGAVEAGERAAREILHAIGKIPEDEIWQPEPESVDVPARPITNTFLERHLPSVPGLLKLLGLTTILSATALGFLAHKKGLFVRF
The experiment can be described thus: biochemical. As to conditions: IC50 MAO-B, rat brain homogenate in vitro; mean SEM, n=3 in triplicates. The protocol:
as §1, §2, §3, §4

Experiment [1] addresses T3, butyrylcholinesterase (BuChE) (Rattus norvegicus, UniProt Q9JKC1).
T3 construct: total cholinesterase (ChE) and butyrylcholinesterase (BuChE) activities in rat brain homogenates; from tissue; host or cells: brain homogenate (10% w/v) of adult Wistar rats
Nature of the experiment: Butyrylcholinesterase inhibition in rat brain homogenates (Ellman). The experiment is classed as biochemical. As to conditions: mean SEM, n=3 in triplicates. The protocol:
(§5) Cholinesterase activity was determined in rat brain homogenate following incubation with varying concentrations of the multifunctional pro-chelators of the invention (also referred to herein as “carbamates”).
(§6) Ellman's colorimetric method was adapted for determination of total cholinesterase (ChE) and butyrylcholinesterase (BuChE) activities in rat brain homogenates. Brain tissue from adult Wistar rats was homogenized at 2% w/v (or 10% w/v, for BuChE) in 0.1 M sodium phosphate buffer, pH 7.4, with added NaCl 58.5 g/l and Triton X-100 0.05% v/v. Aliquots of homogenate (20 μl) were incubated with the test compounds for designed time intervals in phosphate buffer pH 7.4, before addition of 5,5′-dithiobis(2-nitrobenzoic) acid and either 1 mM acetylthiocholine iodide or 10 mM butyrylthiocholine iodide (Sigma, St. Louis, Mo.). The reaction was run at 37° C. in a final volume of […] in 96-well microplates and was followed at 412 nm for 5 min with a plate reader. In every experiment, cholinesterase-independent (nonspecific) substrate hydrolysis was determined by including one experimental group treated with tacrine 30 μM. Appropriate tissue and reagent blanks were also included. Reaction velocities were determined in three or four replicates per condition; these were averaged and expressed as percent activity relative to control (solvent), after subtracting the rate of nonspecific hydrolysis.
(§7) The results are the mean SEM, n=3 in triplicates. ND—not determined.

The target in experiment [2] is T4, rat brain cholinesterase (total ChE) (Rattus norvegicus, UniProt P37136).
T4 construct: rows headed: Ki (dissociation constant for EI); other: rat brain total ChE; mean of 3-4 experiments; k+2 (carbamylation rate constant); other: from ki; rate of carba
T4 sequence (P37136 32-614): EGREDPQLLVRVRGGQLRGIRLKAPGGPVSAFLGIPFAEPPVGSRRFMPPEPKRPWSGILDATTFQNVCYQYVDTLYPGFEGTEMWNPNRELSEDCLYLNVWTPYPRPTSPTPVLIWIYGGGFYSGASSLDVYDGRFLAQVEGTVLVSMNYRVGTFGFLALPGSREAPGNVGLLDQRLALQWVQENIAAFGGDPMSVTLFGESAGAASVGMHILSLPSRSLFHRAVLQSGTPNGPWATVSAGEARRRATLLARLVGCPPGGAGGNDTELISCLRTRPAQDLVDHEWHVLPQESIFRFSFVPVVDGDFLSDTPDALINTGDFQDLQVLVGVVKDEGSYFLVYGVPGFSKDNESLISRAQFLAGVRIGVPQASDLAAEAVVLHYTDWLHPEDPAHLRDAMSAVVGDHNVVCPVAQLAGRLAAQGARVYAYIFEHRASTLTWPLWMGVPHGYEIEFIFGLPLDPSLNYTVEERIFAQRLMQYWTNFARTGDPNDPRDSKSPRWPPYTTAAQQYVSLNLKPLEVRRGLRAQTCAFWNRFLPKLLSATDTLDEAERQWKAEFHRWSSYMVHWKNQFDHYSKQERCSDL
Nature of the experiment: Kinetics of irreversible cholinesterase inhibition (Kitz-Wilson). The experiment is classed as biochemical. The protocol: To determine kinetic constants of irreversible inhibition, cholinesterase from rat brain homogenates was incubated with the multifunctional compounds of the invention for designed time intervals in phosphate buffer pH 7.4.
The residual cholinesterase activity was immediately measured with the Ellman's colorimetric method after addition of 5,5′-dithiobis(2-nitrobenzoic) acid and 1 mM acetylthiocholine iodide. The inhibition kinetics were assessed according to Kitz-Wilson equation:
[formula] wherein: E represents the enzyme; I represents the intact carbamate (inhibitor); EI is the initial reversible enzyme complex; E* is the carbamylated enzyme; Ki represents the dissociation constant for EI; k+2 is the carbamylation rate constant and k+3 is the decarbamylation rate constant; kapp is the pseudo-first-order inhibition rate constant; ki, the second-order rate inhibition constant, is approximated by k+2/Ki. Under experimental condition [I]>>[E0].
According to equation (2), the logarithm of the ratio of the residual cholinesterase activity (E) and the initial cholinesterase activity (E0) is plotted against the time of incubation. The slopes of the lines representing kapp were determined by linear regression.
The slopes of the lines represent the pseudo-first-order inhibition rate constant (kapp) determined from linear regression analysis. […] The carbamylation rate constant (k+2) was obtained from the y-intercept, and the dissociation constant ([…] was obtained from the slope of the line multiplied by k+2 as described in Materials and Methods.
From these lines, the values of kapp were calculated based on Equation (2) of the Kitz-Wilson equations (see Material and Methods). […] The carbamylation rate constant k+2 is a measure of inactivation of ChE.

Experiment [3] addresses T5, total cholinesterase (ChE) (Rattus norvegicus, UniProt P37136).
T5 sequence (P37136 32-614): T4 sequence (P37136 32-614)
Nature of the experiment: Total cholinesterase inhibition in rat brain homogenates (Ellman). The experiment is classed as biochemical. The conditions noted are these: read-out: percent inhibition Total ChE. The protocol:
as §5, §6, §7

The test system of experiment [4] is rat brain cholinesterase (total ChE). The conditions noted are these: cited from earlier work.

Values joined by “and” are separate entries in the source; they are usually repeats but may differ in a detail not shown here. Identical values can stand only once. Like-named read-outs stand apart in the source and are kept apart here.

T3 sequence (Q9JKC1 24-597): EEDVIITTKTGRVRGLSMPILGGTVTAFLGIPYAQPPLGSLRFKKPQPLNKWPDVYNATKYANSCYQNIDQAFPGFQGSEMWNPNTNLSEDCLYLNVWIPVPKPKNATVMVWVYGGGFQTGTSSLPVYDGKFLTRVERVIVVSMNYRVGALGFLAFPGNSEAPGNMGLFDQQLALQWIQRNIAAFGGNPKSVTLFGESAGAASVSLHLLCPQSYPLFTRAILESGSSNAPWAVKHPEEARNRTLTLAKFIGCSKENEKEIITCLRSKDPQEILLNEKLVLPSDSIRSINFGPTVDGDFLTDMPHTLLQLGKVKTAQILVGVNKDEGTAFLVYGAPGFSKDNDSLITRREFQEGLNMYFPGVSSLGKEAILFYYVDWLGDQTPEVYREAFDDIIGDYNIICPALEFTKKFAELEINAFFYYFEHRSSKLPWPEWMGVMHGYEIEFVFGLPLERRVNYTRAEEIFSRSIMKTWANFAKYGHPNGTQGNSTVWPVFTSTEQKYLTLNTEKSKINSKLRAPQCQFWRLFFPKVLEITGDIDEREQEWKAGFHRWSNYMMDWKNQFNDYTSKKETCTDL

One may read the IC50 as the concentration needed to halve the response being measured. Low readings indicate higher potency, high ones lower potency. For the compound `C#CCN(C)Cc1ccc(OC(=O)N2CCCCC2)c2ncccc12` [Compound 6, 5-((methyl(propargyl)amino)methyl)quinolin-8-yl piperidine-1-carboxylate], the IC50 against rat brain MAO-A is 4.7 to 20 nM and 4.7 nM; against rat brain MAO-B, 1860 nM; in experiment [1], 45.7 ± 5.94 µM. Besides, in experiment [2] (from ki), the “potency in inhibiting ChE relative to rivastigmine” value is on record as “as potent”. The kinact in experiment [2] (pH 7.4, read-out: k+2 (carbamylation rate constant)) is 0.00117 s⁻¹. The kinact/KI in experiment [2] (pH 7.4, read-out: ki (second-order rate inhibition constant, approximated by k+2/Ki)) is 77.3 M⁻¹ s⁻¹.
The term inhibition denotes the share of the control response that was lost under treatment. By Ki is commonly meant a dissociation constant, usually derived from enzyme kinetics or from competition with a known ligand. In the case of `CCN(C)C(=O)Oc1cccc([C@H](C)N(C)C)c1` [Rivastigmine, (S)-N-ethyl-N-methyl-3-[1-(dimethylamino)ethyl]-phenyl carbamate], the inhibition at 1 µM in experiment [3] was 62%. In addition, in experiment [4] (Data from ref.), the “k+2 (carbamylation rate constant)” value is on record as 0.25^b min^−1 and the “ki (second-order rate inhibition constant)” value was 4.54 × 10^3b M^−1 min^−1. In addition, the “k+2 (carbamylation rate constant)” value in experiment [4] (Data from ref., listed as rivastigmine) is 0.25 min⁻¹. The inhibition constant (Ki) in experiment [4] (rivastigmine, data from ref., read-out: Ki, affinity to total ChE) is 55 µM.
